Results reported in patent publication US9603869B2, “Lithium co-crystals and an additional neuropsychiatric agent for treatment of neuropsychiatric disorders” (UNIVERSITY OF SOUTH FLORIDA, priority 2015, dated 2017).
Read-outs that look alike come from different tables or passages of the source.

Tests used:
[1] = system: Murine neuronal stem cells; experiment: Murine neuronal stem cell differentiation (MAP2, total tau, phospho-synapsin I); assay type: cell-based, mouse; details: 10 mM, 4 days; for difference in MAP2, phospho-synapsin I and total tau immunofluorescence and WB between Li2CO3, LiCl and L-proline: murine neuronal stem cells, P>0.05
Method: FIGS. 6A-6F. […] These cells were then permeabilized, washed and stained with mouse anti-MAP2 monoclonal antibody (EMD Millipore) or mouse anti-total tau (tau46) antibody overnight at 4° C. […] Confocal images were taken by Olympus fluoview FV1000 laser scanning confocal microscope. […] DAPI staining (Life Technologies) was used to detect nuclear DNA. Confocal images were taken by Olympus Fluoview™ FV1000 laser scanning confocal microscope (FIG. 17A). […] The band density ratios of MAP2 to β-actin, total tau to β-actin, and phospho-synapsin I to β-actin are presented as mean±S.D (FIGS. 17B-1, 17B-2, and 17B-3, respectively).

[2] = system: COX2; experiment: COX2 expression Western blot in human renal proximal tubule (HRPT) cells; details: 0 to 30 mM, 12 hours
Source text: These cells were then lysed with cell lysis buffer and analyzed by WB for COX2, total GSK3β and phospho GSK3β (Ser9 and Thr390) expression using anti-COX2 antibody (FIG. 7A, ABCAM®) and anti-phospho- and total GSK3β antibodies (FIG. 7B).
These cells were then lysed with cell lysis buffer and analyzed by WB for COX2, total GSK3β and phospho GSK3β (Ser^9) expressions using anti-COX2 antibody (FIG. 20A, Abcam®) and anti-phospho- and total GSK3β antibodies (FIG. 20B).

[3] = system: Human neural stem cells (H9-Derived); experiment: Human neuronal stem cell differentiation (MAP2, GFAP); assay type: cell-based; details: 10 mM, 14 days; for difference in MAP2 and GFAP immunofluorescence and WB between Li2CO3, LiCl and L-proline: human neural stem cells, P>0.05
Source text: Human neural stem cells (H9-Derived) were obtained from Life technologies and cultured with StemPro® NSC SFM media. […] DAPI was used to detect nuclear DNA. Confocal images were taken by Olympus Fluoview™ FV1000 laser scanning confocal microscope (FIG. 18A).

[4] = system: N2a cells; experiment: Neuronal cell differentiation of N2a cells (β-tubulin III, phospho-synapsin I); assay type: cell-based, mouse; details: 10 mM, 24 hours; for difference in β-tubulin III and phospho-synapsin I immunofluorescence and WB between Li2CO3, LiCl and L-proline: P>0.05
Method: FIGS. 5A-5C. […] These cells were then permeabilized with 0.05% Triton X-100 for 5 minutes, washed and stained with mouse anti-β-tubulin III monoclonal antibody ([…]™) and rabbit anti-phospho-Synapsin I (Ser^62, Ser^67) polyclonal antibody (EMD Millipore) overnight at 4° C. […] Confocal images were taken by Olympus fluoview FV1000 laser scanning confocal microscope (Tokyo, Japan).
These cells were then permeabilized with 0.05% Triton X-100 for 5 min, washed, and stained with mouse anti-β-tubulin III monoclonal antibody ([…]™) and rabbit anti-phospho-synapsin I (Ser^62, Ser^67) polyclonal antibody (EMD Millipore) overnight at 4° C. […] Confocal images were taken by Olympus Fluoview™ FV1000 laser scanning confocal microscope (Tokyo, Japan) (FIG. 5A).

[5] = system: GSK3β; experiment: GSK3β phosphorylation Western blot in human renal proximal tubule (HRPT) cells; assay type: cell-based; details: 0 to 30 mM, 12 hours
[6] = system: Mouse primary microglial cells; experiment: Autophagy (LC3B staining) in mouse primary microglial cells; assay type: cell-based; details: 10 mM, 18 hours; for autophagy (LC3B fluorescence intensity of autophagosomes and cytosol): vs PBS control; for difference in fluorescence intensity of autophagosomes and cytosol versus Li2CO3: P>0.05
Source text: FIG. 8. […] The fluorescence intensity of the autophagosomes and the cytosol were quantified using SLIDEBOOK™ digital microscopy software.
The fluorescence intensity of the autophagosomes and the cytosol were quantified using Slidebook™ digital microscopy software (mean±SD) (FIG. 19).

[7] = system: COX2; details: Tg2576 mice, diet 8 weeks, lithium 2.25 mmol/kg/day
[8] = C57BL/6J mice, diet 1 or 2 weeks, lithium 1.125 or 2.25 mmol/kg/day
Method: All mice received normal drinking water ad libitum. Statistical analysis was carried out following ANOVA analysis.

[9] = system: cytokines and sCD40L; details: Tg2576 mice, diet 8 weeks, 2.25 mmol/kg/day
Source text: In addition, spleens from these mice were isolated and splenocytes cultured as described previously (30).

[10] = system: β-amyloid pathology in Tg2576 mice; details: diet 8 weeks, lithium 2.25 mmol/kg/day, Li2CO3 vs control NIH31 diet
Method: All mice received normal drinking water ad libitum. […] Mouse brain tissue sections and homogenates were prepared from each mouse after treatment. Half-brain coronal sections were analyzed by Aβ antibody 4G8 staining (FIG. 14A). Percentage of 4G8 positive plaques (mean±SD) was quantified by image analysis (28, 29) (FIG. 14B). Total soluble and insoluble Aβ40,42 peptides from homogenates were analyzed by ELISA, and represented as picograms of Aβ peptides per mg of total protein (FIG. 14C).

[11] = system: GSK3β; details: Tg2576 mice, diet 8 weeks, 2.25 mmol/kg/day; LISPRO vs Li2CO3-treated, Li2CO3 vs control NIH31 diet
Source text: (§1) Inhibitory phosphorylation status of GSK3β was detected by anti-phospho-GSK3β (Ser^9) [pGSK3β (Ser^9)] antibody.

[12] = system: tau; details: Tg2576 mice, diet 8 weeks, 2.25 mmol/kg/day; LISPRO vs Li2CO3-treated, Li2CO3 vs control NIH31 diet
Source text: as §1

[13] = rats, 4 mEq/kg lithium, oral gavage
[14] = system: COX2; details: C57BL/6J male mice, diet 1 or 2 weeks, lithium 1.125 and 2.25 mmol/kg/day
Source text: All mice received normal drinking water ad libitum. Kidneys were collected after treatment and analyzed by immunohistochemistry for COX2 expression in the renal medulla (FIG. 21A). In addition, the kidney microsomal proteins were extracted to assess COX2 expression by WB (FIGS. 21B-1, 21B-2). Data are expressed as mean±SD in duplicates from six mice in each group (FIG. 21B-3).

[15] = system: 3XTg-AD mice; details: chow 4 months
Source text: In order to reduce potential lithium toxicity in the kidney, a saline bottle will be provided in addition to water in all cages. Behavior of animals in these groups and in non-transgenic untreated wild-type mice will be evaluated after treatment, with a established behavioral battery which measures multiple cognitive domains, including open field, novel object recognition, radial arm water maze, and contextual and cued fear conditioning (42-46).
The behavioral battery will include the Balance Beam Task, to evaluate vestibular and general motor function and account for any problems that may occur with the rest of the tests due to motor (and not behavioral/cognitive) impairment.

[16] = system: primary microglial cells
Method: FIGS. 4A-4C. […] Data are represented as mean percentage of CD40 expressing cells (±SD). […] Microglial cell culture supernatants were collected and subjected to cytokine ELISA as indicated. Data were represented as mean pg of TNFα or IL-12p70 per mg of total cellular protein (±SD). […] Cellular supernatants and lysates were analyzed for extracellular (top panel) and cell-associated (bottom panel) FITC-Aβ42 using a fluorometer. Data are represented as the relative fold of mean fluorescence change (mean±SD), calculated as the mean fluorescence for each sample at 37° C. divided by mean fluorescence at 4° C.
Data are represented as mean percentage of CD40-expressing cells (±SD) (FIG. 4A). […] Microglial cell culture supernatants were collected and subjected to cytokine ELISA as indicated. Data are represented as mean pg of TNFα or IL-12p70 per mg of total cellular protein (±SD) (FIG. 4B). […] Cellular supernatants and lysates were analyzed for extracellular (top panel) and cell-associated (bottom panel) FITC-Aβ42 using a fluorometer (FIG. 4C). Data are represented as the relative fold of mean fluorescence change (mean±SD), calculated as the mean fluorescence for each sample at 37° C. divided by mean fluorescence at 4° C.

[17] = system: primary microglia isolated from 3XTg-AD mice; details: microglia from older 3XTg-AD mice treated at minimum dose, vs Li2CO3 or control diet
Source text: The inventors will fully examine microglial pro-inflammatory MAPK, NF-kB and CD40 signaling pathways, cytokine secretion, Aβ phagocytosis capacity, markers of M1 or M2 phenotype and microglial autophagy (IMPase) ex vivo via immunohistochemistry, WB, RT-PCR and Flow analysis in primary microglia isolated from these mice. These methods and assays have been well established as previously published (56, 73, 75). The culturing of primary microglial cells from young and aged mice has been routinely conducted (28, 29, 73).

[18] = system: GSK3β; details: 12 hours
Method: FIGS. 2A and 2B. […] Cell lysates were prepared and subjected to WB analysis with specific anti-phospho-GSK3β (Ser9) and total GSK3β antibodies. […] WB results are representative of three independent experiments.
WB results are representative of three independent experiments.

[19] = system: Notch processing; details: N2a/APPwt/Notch-ΔE cells, 0, 2.5, 5 and 10 mM, 5 hours, compared to DFK-167
Source text: (§2) FIGS. 1A and 1B. […] The cell lysates were routinely prepared from these cells for Western blot (WB) analysis.

[20] = system: Aβ40,42 peptides; details: N2a/APPwt cells, LISPRO 0, 2.5, 5 and 10 mM, 12 h
Source text: as §2

O=C(O)[C@@H]1CCCN1 [L-proline]
difference in MAP2, phospho-synapsin I and total tau immunofluorescence and WB between Li2CO3, LiCl and L-proline [1]: no significance difference | COX2 expression (WB) [2]: no change | difference in MAP2 and GFAP immunofluorescence and WB between Li2CO3, LiCl and L-proline [3]: no significance difference | difference in β-tubulin III and phospho-synapsin I immunofluorescence and WB between Li2CO3, LiCl and L-proline [4]: no notable or significant difference | GSK3β activity / GSK3β (Ser9) phosphorylation (WB) [5]: no change | autophagy (LC3B fluorescence intensity of autophagosomes and cytosol) [6]: failed to promote any notable autophagy

O=C([O-])[O-].[Li+].[Li+] [Li2CO3, lithium carbonate]
kidney (renal) COX2 expression versus control mice [7]: enhanced | difference in MAP2, phospho-synapsin I and total tau immunofluorescence and WB between Li2CO3, LiCl and L-proline [1]: no significance difference | difference in lithium levels in serum and brain homogenate between Li2CO3- and lithium salicylate-treated mice [8]: no significant difference | difference in COX2 expression between Li2CO3 and LiCl [2]: no notable differences | difference in MAP2 and GFAP immunofluorescence and WB between Li2CO3, LiCl and L-proline [3]: no significance difference | cytokine levels in plasma and splenocyte cultured media ([9]; vs control NIH31 diet): no notable or significant difference | β-amyloid pathology (4G8 positive Aβ plaques in brain sections) [10]: no notable or significant difference | ratio of pGSK3β (Ser9) to total GSK3β in brain homogenates [11]: no notable and significant difference | ratio of p-tau (Thr231) to total tau in brain homogenates [12]: no notable and significant difference | brain lithium level profile [13]: spike in brain lithium levels at 24 hours | plasma lithium level at 48 hours [13]: nearly undetectable | plasma lithium pharmacokinetic profile [13]: sharp peak and rapid elimination | difference in β-tubulin III and phospho-synapsin I immunofluorescence and WB between Li2CO3, LiCl and L-proline [4]: no notable or significant difference | difference in GSK3β phosphorylation between Li2CO3 and LiCl [5]: no notable differences | autophagy (LC3B fluorescence intensity of autophagosomes and cytosol) [6]: significant enhancement of autophagy

[Cl-].[Li+] [LiCl]
difference in MAP2, phospho-synapsin I and total tau immunofluorescence and WB between Li2CO3, LiCl and L-proline [1]: no significance difference | difference in COX2 expression between Li2CO3 and LiCl [2]: no notable differences | difference in MAP2 and GFAP immunofluorescence and WB between Li2CO3, LiCl and L-proline [3]: no significance difference | difference in β-tubulin III and phospho-synapsin I immunofluorescence and WB between Li2CO3, LiCl and L-proline [4]: no notable or significant difference | difference in GSK3β phosphorylation between Li2CO3 and LiCl [5]: no notable differences | difference in fluorescence intensity of autophagosomes and cytosol versus Li2CO3 [6]: no significance difference

O=C([O-])c1ccccc1O.[Li+] [lithium salicylate]
difference in lithium levels in serum and brain homogenate between Li2CO3- and lithium salicylate-treated mice [8]: no significant difference | kidney microsomal COX2 expression levels versus control NIH31 diet [14]: no significant difference

Lithium Salicylate Proline [LISPRO]
effectiveness on abolishing AD-like cognitive impairment [15]: more effective than equimolar doses of Li2CO3 | long-term and short-term memory impairment (behavioral battery) ([15]; prophylactic and therapeutic groups): will reverse or abolish long-term and short-term memory impairment | murine neuronal stem cell differentiation (MAP2, total tau, phospho-synapsin I) [1]: Enhances Murine Neuronal Stem Cell Differentiation | microglial phagocytosis of Aβ (FITC-Aβ42, extracellular and cell-associated) ([16]; 10 mM pre-treatment 6 hours, 1 μM aged FITC-Aβ42 1 hour): Enhances Microglial Phagocytosis of Aβ | IFNγ-induced CD40 expression (FACS, percentage of CD40-expressing cells) ([16]; 8 hours co-treatment): significant dose-dependent decreases | pro-inflammatory microglial activation induced by IFNγ and CD40 signaling (FACS, TNFα and IL-12p70 ELISA) ([16]; IFNγ or/and CD40L 1 μg/mL, 8 hours): Inhibits Microglial Activation-Induced by IFNγ and CD40 Signaling | human neuronal stem cell differentiation (MAP2, GFAP) [3]: Enhances Human Neuronal Stem Cell Differentiation | anti-inflammatory/Th2 responses (cytokine ELISA) ([9]; oral): Promotes Anti-Inflammatory/Th2 Responses | sCD40L in the CNS (brain homogenate ELISA) ([9]; oral): Decreases sCD40L | microglial M2 phenotype ex vivo [17]: will strongly preserve an M2 phenotype | phosphorylated GSK3β (Ser9) level (WB) ([18]; SH-SY5Y cells): notably elevated | phosphorylated GSK3β (Ser9) level (WB) ([18]; primary neuronal cells): notably elevated | β-amyloid pathology (4G8 positive Aβ plaques in brain sections) [10]: Reduces β-Amyloid Pathology | Notch cleavage (WB, c-myc and cleaved Notch antibodies) [19]: did not inhibit Notch cleavage | Aβ40, Aβ42 peptides secreted in cell culture media (Aβ generation) [20]: reduces Aβ generation | neuronal cell differentiation (β-tubulin III, phospho-synapsin I) [4]: Markedly Promotes Neuronal Cell Differentiation | GSK3β activity / GSK3β (Ser9) phosphorylation (WB) [5]: Markedly Reduces GSK3β Activity | difference in fluorescence intensity of autophagosomes and cytosol versus Li2CO3 [6]: no significance difference | autophagy (LC3B fluorescence intensity of autophagosomes and cytosol) [6]: significant enhancement of autophagy
